Numbers after ± are expanded uncertainties.
Assay: xn = mol fraction of the nth substance listed
Details: Fluid (supercritical or subcritical phases), Vibrating tube method

c1ccc2ccccc2c1 [naphthalene] + O=C=O
Details	mass density [kg/m3]
332.95 K, 23003 kPa, x1 = 0.0049	772.24 ± 0.61
332.95 K, 24035 kPa, x1 = 0.0049	783.38 ± 0.6
332.96 K, 13066 kPa, x1 = 0.0093	562.4 ± 1.2
332.96 K, 14010 kPa, x1 = 0.0093	607.19 ± 1.1
332.96 K, 14033 kPa, x1 = 0.0144	623.67 ± 0.97
332.96 K, 15035 kPa, x1 = 0.0144	657.01 ± 0.88
332.96 K, 15044 kPa, x1 = 0.0093	643.85 ± 0.93
332.96 K, 15076 kPa, x1 = 0.0173	670.77 ± 0.82
332.96 K, 16046 kPa, x1 = 0.0093	671.79 ± 0.83
332.96 K, 16056 kPa, x1 = 0.0144	683.98 ± 0.79
332.96 K, 16081 kPa, x1 = 0.0173	695.5 ± 0.78
332.96 K, 17019 kPa, x1 = 0.0144	704.86 ± 0.73
332.96 K, 17024 kPa, x1 = 0.0173	714.84 ± 0.72
332.96 K, 17026 kPa, x1 = 0.0093	694.34 ± 0.77
332.96 K, 17996 kPa, x1 = 0.0173	731.97 ± 0.68
332.96 K, 18009 kPa, x1 = 0.0093	713.47 ± 0.72
332.96 K, 18013 kPa, x1 = 0.0144	723.3 ± 0.69
332.96 K, 18019 kPa, x1 = 0.0235	741.5 ± 0.66
332.96 K, 19018 kPa, x1 = 0.0235	756.06 ± 0.64
332.96 K, 19028 kPa, x1 = 0.0144	739.71 ± 0.66
332.96 K, 19030 kPa, x1 = 0.0093	730.7 ± 0.69
332.96 K, 19068 kPa, x1 = 0.0173	748.38 ± 0.65
332.96 K, 19996 kPa, x1 = 0.0173	761.05 ± 0.63
332.96 K, 20018 kPa, x1 = 0.0144	753.83 ± 0.64
332.96 K, 20030 kPa, x1 = 0.0093	745.57 ± 0.66
332.96 K, 20031 kPa, x1 = 0.0235	769.21 ± 0.62
332.96 K, 20990 kPa, x1 = 0.0144	766.28 ± 0.62
332.96 K, 21000 kPa, x1 = 0.0235	780.59 ± 0.6
332.96 K, 21004 kPa, x1 = 0.0093	758.59 ± 0.64
332.96 K, 21018 kPa, x1 = 0.0173	773.69 ± 0.61
332.96 K, 21972 kPa, x1 = 0.0235	791.04 ± 0.59
332.96 K, 21996 kPa, x1 = 0.0173	784.65 ± 0.59
332.96 K, 22030 kPa, x1 = 0.0144	778.43 ± 0.6
332.96 K, 22033 kPa, x1 = 0.0093	771.07 ± 0.62
332.96 K, 22991 kPa, x1 = 0.0173	794.89 ± 0.58
332.96 K, 22996 kPa, x1 = 0.0235	801.19 ± 0.58
332.96 K, 23002 kPa, x1 = 0.0093	781.81 ± 0.61
332.96 K, 23017 kPa, x1 = 0.0144	789 ± 0.59
332.96 K, 23986 kPa, x1 = 0.0235	810.27 ± 0.57
332.96 K, 23990 kPa, x1 = 0.0093	791.9 ± 0.59
332.96 K, 23999 kPa, x1 = 0.0144	798.72 ± 0.58
332.96 K, 24019 kPa, x1 = 0.0173	804.7 ± 0.57
332.96 K, 24677 kPa, x1 = 0.0173	810.61 ± 0.56
332.96 K, 24809 kPa, x1 = 0.0235	817.39 ± 0.56
332.96 K, 24940 kPa, x1 = 0.0144	807.41 ± 0.57
333 K, 12451 kPa, x1 = 0.0065	503.55 ± 1.5
333 K, 13033 kPa, x1 = 0.0065	540.53 ± 1.3
333 K, 13760 kPa, x1 = 0.0065	578.33 ± 1.2
333 K, 14541 kPa, x1 = 0.0065	610.99 ± 1
333 K, 15426 kPa, x1 = 0.0065	640.78 ± 0.91
333 K, 16333 kPa, x1 = 0.0065	665.58 ± 0.83
333 K, 17231 kPa, x1 = 0.0065	686.41 ± 0.77
333 K, 18146 kPa, x1 = 0.0065	704.71 ± 0.73
333 K, 19018 kPa, x1 = 0.0065	720.04 ± 0.69
333 K, 20017 kPa, x1 = 0.0065	735.62 ± 0.67
333 K, 21002 kPa, x1 = 0.0065	749.43 ± 0.65
333 K, 22012 kPa, x1 = 0.0065	762.16 ± 0.63
333 K, 23025 kPa, x1 = 0.0065	773.85 ± 0.61
333 K, 24004 kPa, x1 = 0.0065	784.3 ± 0.6
333 K, 25022 kPa, x1 = 0.0065	794.34 ± 0.6
333.02 K, 12620 kPa, x1 = 0.0038	505.57 ± 1.5
333.02 K, 12810 kPa, x1 = 0.0038	517.8 ± 1.4
333.02 K, 12997 kPa, x1 = 0.0038	529.34 ± 1.4
333.02 K, 13183 kPa, x1 = 0.0038	540.11 ± 1.3
333.02 K, 13406 kPa, x1 = 0.0038	552.35 ± 1.3
333.02 K, 13640 kPa, x1 = 0.0038	564.51 ± 1.2
333.02 K, 13893 kPa, x1 = 0.0038	576.62 ± 1.1
333.02 K, 14134 kPa, x1 = 0.0038	587.16 ± 1.1
333.02 K, 14390 kPa, x1 = 0.0038	597.75 ± 1.1
333.02 K, 14768 kPa, x1 = 0.0038	612.29 ± 1
333.02 K, 15159 kPa, x1 = 0.0038	625.81 ± 0.95
333.02 K, 15535 kPa, x1 = 0.0038	637.78 ± 0.92
333.02 K, 16027 kPa, x1 = 0.0038	652.03 ± 0.87
333.02 K, 16469 kPa, x1 = 0.0038	663.57 ± 0.83
333.02 K, 17018 kPa, x1 = 0.0038	676.71 ± 0.8
333.02 K, 17622 kPa, x1 = 0.0038	689.78 ± 0.77
333.02 K, 18197 kPa, x1 = 0.0038	701.13 ± 0.74
333.02 K, 18835 kPa, x1 = 0.0038	712.75 ± 0.71
333.02 K, 19606 kPa, x1 = 0.0038	725.55 ± 0.69
333.02 K, 20350 kPa, x1 = 0.0038	736.76 ± 0.67
333.02 K, 21107 kPa, x1 = 0.0038	747.32 ± 0.65
333.02 K, 22018 kPa, x1 = 0.0038	758.99 ± 0.64
333.02 K, 22977 kPa, x1 = 0.0038	770.32 ± 0.62
333.02 K, 23992 kPa, x1 = 0.0038	781.31 ± 0.61
333.02 K, 25039 kPa, x1 = 0.0038	791.79 ± 0.6

From the NIST ThermoML archive (doi:10.1016/j.fluid.2005.06.010)
